Earlier results in patent publication US20070026026A1 (priority 2005, published 2007).

How the values were obtained:
[1] = target: T1, AT1 receptor (Homo sapiens, UniProt P30556); conditions: cited from earlier work
T1 sequence (P30556 1-359): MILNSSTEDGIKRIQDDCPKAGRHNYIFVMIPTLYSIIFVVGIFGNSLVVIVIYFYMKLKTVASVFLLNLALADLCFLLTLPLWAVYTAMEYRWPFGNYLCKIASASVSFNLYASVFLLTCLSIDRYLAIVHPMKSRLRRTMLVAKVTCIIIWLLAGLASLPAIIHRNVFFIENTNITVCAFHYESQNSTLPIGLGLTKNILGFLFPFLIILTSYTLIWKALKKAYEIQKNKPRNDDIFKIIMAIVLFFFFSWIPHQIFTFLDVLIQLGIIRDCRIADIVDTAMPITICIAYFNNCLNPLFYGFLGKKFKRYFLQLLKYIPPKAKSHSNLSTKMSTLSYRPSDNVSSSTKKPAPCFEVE

[2] = cited from earlier work
[3] = target: cytochrome P450 2C9 (Homo sapiens, UniProt P11712); conditions: in vitro studies; cited from earlier work
cytochrome P450 2C9, sequence (P11712 whole entry): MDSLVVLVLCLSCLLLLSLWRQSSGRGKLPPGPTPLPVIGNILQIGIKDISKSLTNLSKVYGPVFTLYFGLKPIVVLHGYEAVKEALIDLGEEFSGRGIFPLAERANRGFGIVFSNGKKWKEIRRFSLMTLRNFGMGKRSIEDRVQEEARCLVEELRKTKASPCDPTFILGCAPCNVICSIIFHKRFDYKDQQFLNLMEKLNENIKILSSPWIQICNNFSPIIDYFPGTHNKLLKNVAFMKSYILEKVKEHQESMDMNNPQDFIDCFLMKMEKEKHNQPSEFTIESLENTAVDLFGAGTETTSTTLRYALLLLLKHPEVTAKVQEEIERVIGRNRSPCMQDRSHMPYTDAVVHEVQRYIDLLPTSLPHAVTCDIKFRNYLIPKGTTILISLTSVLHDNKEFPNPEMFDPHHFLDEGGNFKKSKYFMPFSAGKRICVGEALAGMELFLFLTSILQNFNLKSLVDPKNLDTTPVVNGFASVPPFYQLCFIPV

[4] = target: cytochrome P450 3A4 (Homo sapiens, UniProt P08684); conditions: in vitro studies; cited from earlier work
cytochrome P450 3A4, sequence (P08684 whole entry): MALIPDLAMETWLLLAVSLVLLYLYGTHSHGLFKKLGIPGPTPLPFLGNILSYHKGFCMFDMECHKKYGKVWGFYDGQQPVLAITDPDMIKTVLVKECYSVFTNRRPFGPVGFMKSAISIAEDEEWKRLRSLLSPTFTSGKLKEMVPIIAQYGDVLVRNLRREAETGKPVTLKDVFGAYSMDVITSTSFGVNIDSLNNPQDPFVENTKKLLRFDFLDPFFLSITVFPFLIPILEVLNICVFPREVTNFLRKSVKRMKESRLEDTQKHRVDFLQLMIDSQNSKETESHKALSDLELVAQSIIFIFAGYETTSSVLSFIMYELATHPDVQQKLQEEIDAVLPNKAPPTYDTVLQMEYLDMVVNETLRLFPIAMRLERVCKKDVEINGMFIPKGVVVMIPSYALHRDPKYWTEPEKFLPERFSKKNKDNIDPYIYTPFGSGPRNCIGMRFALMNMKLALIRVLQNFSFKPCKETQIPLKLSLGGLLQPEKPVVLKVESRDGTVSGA

[5] = room temperature; cited from earlier work

| SMILES | partial agonist activity at the AT1 receptor [1] | terminal half-life ([2]; in vivo) | maximum plasma concentrations of losartan and its active metabolite compared ([2]; oral administration) | systemic bioavailability ([2]; oral administration) | time to mean peak concentrations ([2]; oral administration) | pharmacokinetics, dose dependence ([2]; oral losartan doses up to 200 mg) | effect of a meal on AUC (decrease) ([2]; with a meal) | effect of a meal on Cmax ([2]; with a meal) | effect of a meal on absorption ([2]; with a meal) | involvement in the biotransformation of losartan to its metabolites [3] | involvement in the biotransformation of losartan to its metabolites [4] | thermodynamic stability of the polymorph [5] |
| --- | --- | --- | --- | --- | --- | --- | --- | --- | --- | --- | --- | --- |
| CCCCc1nc(Cl)c(CO)n1Cc1ccc(-c2ccccc2-c2nn[nH]n2)cc1 [losartan] | do not exhibit any partial agonist activity | about 2 hours | approximately equal | approximately 33% | 1 h | linear | about 10% | decreases | slows absorption | involved | involved |  |
| CCCCc1nc(Cl)c(CO)n1Cc1ccc(-c2ccccc2-c2nnn[n-]2)cc1.[K+] [Form I] |  |  |  |  |  |  |  |  |  |  |  | more thermodynamically stable polymorph |
